From patent publication US6525017B1, “Using glutathiane to protect neurons from injury” (The Children's Medical Center Corporation, priority 1989, dated 2003)

Key:
Format in all cases: cell-based
[1] = system: NMDA receptor; assay: Whole-cell NMDA responses in isolated rat retinal ganglion cells
Method: The third central neuronal preparation in which the effects of oxidation and reduction on NMDA responses were tested was the isolated rat retinal ganglion cell. Postnatal retinal ganglion cells were identified and cultured as described in Lipton et al., supra. Physiological solutions and experimental protocol were the same as described for cortical neurons (Example 2), except that TTX was excluded from the extracellular fluid, since whole-cell recordings were performed on neurons that were solitary and had no apparent connections to other cells and no spontaneous action potentials.
These cells have well-characterized, albeit small, NMDA responses. Treatment with 2 mM DTT (1-3 min) produced potentiation of the response elicited by 200 μM NMDA and 1 μM glycine (250%±130% of control; range, 220%-320%). […] Glycine (1 μM) potentiation of NMDA (200 μM) responses occurred in both the reduced and the oxidized states. […] The effects of reduction and oxidation could be repeated in alternating fashion in these cells for as long as the recording remained stable.

[2] = system: NMDA receptor; assay: Whole-cell patch-clamp NMDA responses in cultured rat cortical neurons
Method: The effects of reduction and oxidation on the NMDA response were further examined in cultured mammalian central neurons with the use of patch electrodes. Experiments were performed on neurons in primary cultures of CD rat neocortex derived from embryonic day 16 fetuses and plated onto glass coverslips coated with collagen and poly-L-lysine. The growth medium consisted of a v/v mixture of 80% DMEM (Sigma D5530), 10% F-12 (Sigma), 10% heat-inactivated, iron-supplemented serum (Hyclone), with 25 mM HEPES, 24 U/ml penicillin, and 24 μg/ml streptomycin, supplemented to 2 mM glutamine. Recordings were performed on 3- to 13-week-old cultures, and neurons studied ranged from 12 to 18 μm in diameter. The extracellular solution for the physiological experiments contained 137 mM NaCl, 1 mM NaHCO3, 0.34 mM NaHPO4, 5.36 mM KCl, 0.44 mM KH2PO4, 2.5 mM CaCl2, 5 mM HEPES-NaOH, 22.2 mM dextrose, 0.001% (v/v) phenol red, adjusted to pH 7.2 with 0.3 N NaOH (no added magnesium, except where noted). Tetrodotoxin (TTX) (1 μM) was routinely added to reduce synaptic activity. The intracellular (pipette) solution contained 120 mM CsCl, 20 mM TEA-Cl, 2 mM MgCl2, 1 mM CaCl2, 1.5-2.25 mM EGTA, and 10 mM HEPES-NAOH, adjusted to pH 7.2 with concentrated TEA-OH. Electrophysiological measurements were performed at 33° C.-35° C. with patch electrodes (4-8 MΩ), essentially as described in Lipton et al. J. Physiol 385:361, 1987. Lipton et al. 1987 includes the following disclosure of electrophysiological recordings by patch clamp from solitary neurons:
“. . . patch-clamp recordings were made . . . following the methods of Hamill et al. (1981) using an EPC-7 amplifier (List Electronic, Darmstadt, F.R.G.). Patch electrodes had resistances of 3-5 MΩ when filled with Na^+ or K^+ saline. Patch electrodes were used to record whole-cell currents under voltage clamp as well as single-channel currents from patches of membrane excised from the cell. The indifferent electrode was a Ag-AgCl wire connected to the culture dish via an agarose bridge. Holding and command potentials (VH and Vc, respectively (were generated by a digital-to-analog converter (Cheshire Data, Hamden, Conn., U.S.A.) interfaced with a PDP 11/23 or 11/73 computer (Digital Equipment Corp., Maynard, Mass., U.S.A.). Data collection was also controlled by the computer; data were sampled and digitized with a 12-bit, 125 kHz analog-to-digital converter (Data Translation, Marlboro, Mass., U.S.A., Model DT2782DMA) and viewed on a Hewlett-Packard digital display (Model 1345A). The sampling rate was set at 10 μs to 50 ms depending on the level of analysis. Using the amplifier test circuit, the digitized data were accurate to within 1%. The signals were low-pass filtered at a setting appropriate to the sampling frequency (Ithaco, Ithaca, N.Y., U.S.A., Model 4302 with a Bessel frequency cut-off characteristic of 48 dB/octave). Leakage currents and liquid junction potentials were corrected as described in Fenwick, Marty & Neher [J. Physiol. 331:577-597] (1982a). Using the EPC-7 circuit, analog compensation of the series resistance was applied. This ensured a relatively small error due to the voltage drop across the series resistance (less than or equal to that calculated by Marty & Neher, 1985 [J. Physiol. 367:117-141]). Data were stored on a 30 megabyte Winchester disk (Data Systems Design, San Jose, Calif., U.S.A., Model 880). […]

[3] = system: nicotinic receptor; assay: Nicotinic receptor function in intact chick retina
Method: Eyecups were obtained from 2-to 5-day-old chicks and continuously superfused at 20-25° C. at a rate of 8 ml/min with Tyrodes solution (130 mM NaCl, 3 mM KCl, 17 mM dextrose, 20 mM NaHCO3, 0.01% w/v phenol red; bubbled with a gas mixture of 95% O2 and 5% CO2) containing 5 mM MgCl2 to reduce synaptic activity. […] Traces were triggered by the opening of two solenoid valves that shunted approximately 200 μl of agonist (1, 1-dimethyl-4-phenyl-piperazinium iodide, DMPP or NMDA) into the perfusion line, Agonists reached the preparation approximately 7s later. The resulting responses originated, at least in part, in the retinal ganglion cells. Some experiments were performed in the presence of 10 μg/ml catalase and 1 μg/ml superoxide dismutase. Antagonists, reducing agents, or oxidizing agents were introduced directly via the perfusate.
The action of DTT lasted for tens of minutes after the reducing agent was removed; any small decrement in the potentiation could be reversed with additional DTT treatment. The function of the nicotinic receptors was restored upon oxidation with 0.1-1.0 mM DTNB (applied for 5 min). […] The reduction and oxidation effects could be alternated repeatedly for as long as the preparation remained stable, which was often more than 9 hr.

SMILES	decrement of the native NMDA response ([1]; 0.1-0.2 mM DTNB, mean ± spread)	decrement of the native NMDA response, range ([1]; 0.1-0.2 mM DTNB, range)	decrease of NMDA response ([2]; 1-3 min treatment with 0.1-1.0 mM DTNB, mean ± spread)	decrease of NMDA response, range ([2]; 1-3 min treatment with 0.1-1.0 mM DTNB, range)	nicotinic receptor function upon oxidation ([3]; 0.1-1.0 mM DTNB applied for 5 min, after DTT)	NMDA response, % of control (potentiation) ([1]; 200 μM NMDA + 1 μM glycine, 2 mM DTT 1-3 min, mean ± spread)	NMDA response, % of control, range ([1]; 200 μM NMDA + 1 μM glycine, 2 mM DTT 1-3 min, range)	voltage-clamped NMDA response, % of control (potentiation) ([2]; 10-100 μM NMDA + 1 μM glycine, 1-5 min treatment with 0.5-2.0 mM DTT, mean ± spread)	voltage-clamped NMDA response, % of control, range ([2]; 10-100 μM NMDA + 1 μM glycine, 1-5 min treatment with 0.5-2.0 mM DTT, range)	NMDA response on reapplication of DTT after oxidation ([2]; after DTNB oxidation)	nicotinic receptor function after reduction ([3]; DTT 1-2 mM applied for 10-25 min)
O=C(O)c1cc(SSc2ccc([N+](=O)[O-])c(C(=O)O)c2)ccc1[N+](=O)[O-] [DTNB, 5′-5′-dithiobis-2-nitrobenzoic acid]	49.4%±9.4%	37%-60%	22.9%±12.9%	0%-39.5%	restored						
O[C@@H](CS)[C@@H](O)CS [DTT, dithothreitol]						250%±130%	220%-320%	250%±140%	220%-330%	always restored the NMDA response to greater than control levels	blocks nicotinic receptor function
